{"source": "paper PMC7269503", "about": "(Antimicrobial Agents and Chemotherapy, 2020)", "key": {"[1]": {"tested_on": "OPC-167832-resistant isolates of M. tuberculosis H37Rv", "format": "cell-based"}, "[2]": {"conditions": "female, ICR, mouse, in vivo, po, 2.5 mg/kg"}}}
{"smiles": "O=C1CCc2c(OC[C@]3(O)CCN(c4c(F)cc(Cl)cc4F)C[C@H]3O)ccc(F)c2N1", "note": "[OPC-167832]", "values": [{"measurement": "MIC against Rv0678 mutants", "setting": "[1]", "value": 1, "unit": "ng/mL"}, {"measurement": "AUCt/12 h/MIC", "setting": "[2]", "value": 95, "unit": "fold"}, {"measurement": "Cmax/MIC", "setting": "[2]", "value": 314, "unit": "fold"}]}
